Test results published in patent US5438052A, “Cephalosporin derivatives” (Hoffmann-La Roche Inc., priority 1991, dated 1995).
Values after ≈ are worked out from the molar mass of the structure shown. Where a name gives a salt, the structure may show the parent alone.

Assays:
[1] = system: C. freundii 902; test: Minimum inhibitory concentration in vitro, agar dilution method; assay type: cell-based; settings: Citrobacter freundii; C. freundii 902, agar dilution; read-out: MIC
Source text: (§1) 1. Minimum Inhibitory Concentration in vitro
(§2) The activities ascertained, minimum inhibitory concentration (MIC) in μg/ml, are compiled in Table 1 hereinafter: […]

[2] = system: E. coli 25922; test: as above; assay type: cell-based; settings: Escherichia coli; E. coli 25922, agar dilution; read-out: MIC
Source text: as §1, §2

[3] = system: S. aureus 6538; test: as above; assay type: cell-based; settings: Staphylococcus aureus; S. aureus 6538, agar dilution; read-out: MIC
Source text: as §1, §2

[4] = system: P. aeruginosa 799/61; test: as above; assay type: cell-based; settings: Pseudomonas aeruginosa; P. aeruginosa 799/61, agar dilution; read-out: MIC
Source text: as §1, §2

[5] = system: S. marcescens 69438; test: as above; assay type: cell-based; settings: Serratia marcescens; S. marcescens 69438, agar dilution; read-out: MIC
Source text: as §1, §2

[6] = system: P. vulgaris 1028; test: as above; assay type: cell-based; settings: Proteus vulgaris; P. vulgaris 1028, agar dilution; read-out: MIC
Source text: as §1, §2

[7] = system: E. aerogenes CF153; test: as above; assay type: cell-based; settings: Klebsiella aerogenes; E. aerogenes CF153, agar dilution; read-out: MIC
Source text: as §1, §2

[8] = system: E. cloacae 908SSi; test: as above; assay type: cell-based; settings: Enterobacter cloacae; E. cloacae 908SSi, agar dilution; read-out: MIC
Source text: as §1, §2

[9] = system: E. cloacae 908R; test: as above; assay type: cell-based; settings: Enterobacter cloacae; E. cloacae 908R, agar dilution; read-out: MIC
Source text: as §1, §2

[10] = system: P. aeruginosa 799/WT; test: as above; assay type: cell-based; settings: Pseudomonas aeruginosa; P. aeruginosa 799/WT, agar dilution; read-out: MIC
Source text: as §1, §2

[11] = system: E. cloacae P99; test: as above; assay type: cell-based; settings: Enterobacter cloacae
Source text: as §1, §2

[12] = system: P. aeruginosa MK1184; test: as above; assay type: cell-based; settings: Pseudomonas aeruginosa; P. aeruginosa MK1184, agar dilution; read-out: MIC
Source text: as §1, §2

[13] = system: P. aeruginosa 27853; test: as above; assay type: cell-based; settings: Pseudomonas aeruginosa; P. aeruginosa 27853, agar dilution; read-out: MIC
Source text: as §1, §2

[14] = system: K. oxytoca 1082; test: as above; assay type: cell-based; settings: Klebsiella oxytoca; K. oxytoca 1082, agar dilution; read-out: MIC
Source text: as §1, §2

[15] = system: K. pneumoniae 418; test: as above; assay type: cell-based; settings: Klebsiella pneumoniae; K. pneumoniae 418, agar dilution; read-out: MIC
Source text: as §1, §2

[16] = system: P. mirabilis 2117; test: as above; assay type: cell-based; settings: Proteus mirabilis; P. mirabilis 2117, agar dilution; read-out: MIC
Source text: as §1, §2

[17] = system: S. pyogenes 15; test: as above; assay type: cell-based; settings: Streptococcus pyogenes; S. pyogenes 15, agar dilution; read-out: MIC
Source text: as §1, §2

[18] = system: P. aeruginosa BA; test: as above; assay type: cell-based; settings: Pseudomonas aeruginosa; P. aeruginosa BA, agar dilution; read-out: MIC
Source text: as §1, §2

[19] = system: E. coli 25922; test: Experimental systemic septicaemia in the mouse; assay type: in vivo; settings: Escherichia coli, sc, 96 h; E. coli 25922, albino mice, s.c. 1 and 3 hours after infection, survival after 4 days; read-out: ED50
Experimental: (§3) 2. Experimental systemic septicaemia in the mouse
(§4) An experimental systemic septicaemia was produced in albino mice weighing 16-20 g by intraperitoneally injecting into the experimental animals a sample of a dilute culture of the test organism which had been grown overnight. The sample administered is calculated such that the dosage administered is about 5-100 times greater than the dosage which is required to kill 50% of untreated experimental animals within 48 hours. The bacteria were injected as a suspension in the culture broth. Groups of 5 experimental animals each were used not only for the control, but also for the treatment for each dosage tested. The products in accordance with the invention were administered subcutaneously as a suspension in Tween 80 (2%), whereby the concentrations were chosen such that each experimental animal received 500 μl per administration. The respective concentrations were administered twice, namely 1 and 3 hours after the infection (in the case of P. aeruginosa three times, namely 1, 3 and 5 hours after the infection). The ED50 is that dosage which protects 50% of the experimental animals and was calculated by means of the Probit method on the basis of the survial rate after 4 days following the infection. The ED50 values in mg/kg s.c. (subcutaneous) for representatives of the class of substance in accordance with the invention are given in Table 2 hereinafter.

[20] = system: Pseudomonas aeruginosa BA; test: Experimental systemic septicaemia in the mouse; assay type: in vivo; settings: sc, 96 h, P. aeruginosa BA, albino mice, s.c. 1, 3 and 5 hours after infection, survival after 4 days, read-out: ED50
Experimental: as §3, §4

Row | SMILES | MIC [1] [µg/mL] | MIC [2] [µg/mL] | MIC [3] [µg/mL] | MIC [4] [µg/mL] | MIC [5] [µg/mL] | MIC [6] [µg/mL] | MIC [7] [µg/mL] | MIC [8] [µg/mL] | MIC [9] [µg/mL] | MIC [10] [µg/mL] | MIC [11] [µg/mL] | MIC [12] [µg/mL] | MIC [13] [µg/mL] | MIC [14] [µg/mL] | MIC [15] [µg/mL] | MIC [16] [µg/mL] | MIC [17] [µg/mL] | MIC [18] [µg/mL] | ED50 [19] [mg/kg] | ED50 [20] [mg/kg]
1 | Cc1cc(SCC2=C(C(=O)O)N3C(=O)[C@@H](NC(=O)/C(=N\OCc4nc(=O)c(O)c[nH]4)c4csc(N)n4)[C@H]3SC2)n2nc(CNS(=O)(=O)c3ccc(O)c(O)c3)nc2n1 [Example 2, (6R,7R)-7-[(Z)-2-(2-amino-4-thiazolyl)-2-[[(1,4-dihydro-5-hydroxy-4-oxo-2-pyrimidinyl)methoxy]imino]acetamido]-3-[[[2-[(3,4-dihydroxybenzenesulphonamido)methyl]-5-methyl-s-triazolo[1,5-a]pyrimidinyl-7-yl]thio]methyl]-8-oxo-5-thia-1-azabicyclo[4.2.0]oct-2-ene-2-carboxylic acid sodium salt (1:1)] | < 0.1 | < 0.1 | 32 | < 0.1 | < 0.25 | 0.5 | 0.5 | 4 | 1 | 0.12 | 16 | 0.25 | < 0.1 | 4 | < 0.25 | 0.25 | 2 | < 0.1 | 0.3 | 
2 | Nc1nc(/C(=N/OCc2ccc(O)c(O)c2F)C(=O)N[C@@H]2C(=O)N3C(C(=O)O)=C(CSc4nc(-c5ccccc5)ncc4-c4ccc(O)c(O)c4)CS[C@H]23)cs1 [Example 15] | 0.25 (≈ 0.306 µM) | < 0.1 | 32 (≈ 39.1 µM) | < 0.1 | 1 (≈ 1.22 µM) | 0.5 (≈ 0.611 µM) | 0.12 (≈ 0.147 µM) | 16 (≈ 19.6 µM) | 2 (≈ 2.45 µM) | 0.5 (≈ 0.611 µM) | 16 (≈ 19.6 µM) | 32 (≈ 39.1 µM) | 1 (≈ 1.22 µM) | 0.5 (≈ 0.611 µM) | < 0.1 | 0.12 (≈ 0.147 µM) | 0.12 (≈ 0.147 µM) | 0.5 (≈ 0.611 µM) | 0.9 | > 2
3 | Cc1cc(SCC2=C(C(=O)O)N3C(=O)[C@@H](NC(=O)/C(=N\OCc4ccc(O)c(O)c4F)c4csc(N)n4)[C@H]3SC2)n2nc(COC(=O)c3ccc(O)c(O)c3)nc2n1 [Example 9] | < 0.1 | < 0.1 | 8 (≈ 9.37 µM) | < 0.1 | < 0.1 | < 0.1 | < 0.1 | 4 (≈ 4.68 µM) | 0.12 (≈ 0.141 µM) |  | 8 (≈ 9.37 µM) | < 0.1 | < 0.1 | < 0.1 | < 0.1 | < 0.1 | 1 (≈ 1.17 µM) | < 0.1 | < 0.05 | 0.24
4 | Nc1nc(/C(=N/OCc2cc(Cl)c(O)c(O)c2Cl)C(=O)N[C@@H]2C(=O)N3C(C(=O)O)=C(CSc4nc(-c5ccccc5)ncc4-c4ccc(O)c(O)c4)CS[C@H]23)cs1 [Example 18, (6R,7R)-7-[(Z)-2-(2-amino-4-thiazolyl)-2-[[(2,5-dichloro-3,4-dihydroxybenzyl)oxy]imino]acetamido]-3-[[[5-(3,4-dihydroxyphenyl)-2-phenyl-4-pyrimidinyl]thio]methyl]-8-oxo-5-thia-1-azabicyclo[4.2.0]oct-2-ene-2-carboxylic acid] | 0.12 (≈ 0.138 µM) | 0.12 (≈ 0.138 µM) | > 32 | < 0.1 | 1 (≈ 1.15 µM) | 0.12 (≈ 0.138 µM) | 0.12 (≈ 0.138 µM) | 8 (≈ 9.21 µM) | 2 (≈ 2.3 µM) | 0.12 (≈ 0.138 µM) | 16 (≈ 18.4 µM) | 2 (≈ 2.3 µM) | 2 (≈ 2.3 µM) | 0.25 (≈ 0.288 µM) | 0.12 (≈ 0.138 µM) | < 0.1 | 1 (≈ 1.15 µM) | 1 (≈ 1.15 µM) |  | 
